From ChEMBL document CHEMBL6153174, “Design and Synthesis of Novel Deazapurine DNMT 1 Inhibitors with In Vivo Efficacy in DLBCL” (J Med Chem, 2025)
The source made the active and inactive calls. No cut-off for these calls is given here.

Assays:
TMD8 [1] = test: Induction of cell cycle arrest in human TMD8 cells assessed as accumulation of cells at S phase at 1.0 uM incubated for 24 hrs by PI staining based flow cytometry analysis (reference value: 39.0%); format: functional
TMD8 [2] = test: Antitumor activity against human TMD8 cells xenografted in mouse model assessed as inhibition of DNA methylation at 10 mg/kg, iv administered three times a week; format: functional, organism-based
DOHH-2 [3] = test: Induction of cell cycle arrest in human DOHH-2 cells assessed as accumulation of cells at S phase at 1.0 uM incubated for 24 hrs by PI staining based flow cytometry analysis (reference value: 40.7%); format: functional
DOHH-2 [4] = test: Induction of apoptosis in human DOHH-2 cells assessed as early apoptotic cells at 2.5 uM measured after 48 hrs by annexin-V/FITC and PI staining based flow cytometry analysis (reference value: 5.69%); format: functional
[5] = target: T1, DNA (cytosine-5)-methyltransferase 3A (Homo sapiens, UniProt Q9Y6K1); test: Inhibition of DNMT3A (unknown origin) at 5 uM preincubated for 15 mins followed by substrate and [3H-SAM] addition and measured after 60 mins by microbeta analysis relative to control; settings: time 75.0 min
T1 sequence (Q9Y6K1 whole entry, looked up): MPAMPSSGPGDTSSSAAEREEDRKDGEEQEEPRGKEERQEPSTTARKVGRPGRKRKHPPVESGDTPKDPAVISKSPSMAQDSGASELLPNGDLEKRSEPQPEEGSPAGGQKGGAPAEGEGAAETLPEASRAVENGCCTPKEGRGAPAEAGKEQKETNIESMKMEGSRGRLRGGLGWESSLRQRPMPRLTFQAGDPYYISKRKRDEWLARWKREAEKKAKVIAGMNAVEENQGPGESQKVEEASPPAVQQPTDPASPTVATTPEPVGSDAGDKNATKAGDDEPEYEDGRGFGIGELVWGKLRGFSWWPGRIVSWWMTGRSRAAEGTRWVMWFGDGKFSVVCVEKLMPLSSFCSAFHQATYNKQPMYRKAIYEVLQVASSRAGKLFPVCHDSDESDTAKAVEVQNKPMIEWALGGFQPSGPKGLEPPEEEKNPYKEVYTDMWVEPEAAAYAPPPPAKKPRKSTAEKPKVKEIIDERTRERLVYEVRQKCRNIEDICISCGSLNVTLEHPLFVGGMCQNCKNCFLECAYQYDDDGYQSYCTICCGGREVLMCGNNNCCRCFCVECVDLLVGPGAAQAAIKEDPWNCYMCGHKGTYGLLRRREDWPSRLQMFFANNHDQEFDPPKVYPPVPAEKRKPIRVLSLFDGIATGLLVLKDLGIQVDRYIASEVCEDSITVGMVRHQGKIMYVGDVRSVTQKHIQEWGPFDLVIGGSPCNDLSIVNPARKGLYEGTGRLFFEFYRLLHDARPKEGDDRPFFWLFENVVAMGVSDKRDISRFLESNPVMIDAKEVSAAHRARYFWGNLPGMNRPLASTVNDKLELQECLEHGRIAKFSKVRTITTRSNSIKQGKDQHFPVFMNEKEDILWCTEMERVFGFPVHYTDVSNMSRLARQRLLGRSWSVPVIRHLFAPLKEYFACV

TMD8 [6] = test: Antiproliferative activity against human TMD8 cells assessed as inhibition of cell viability measured after 72 hrs by MTT assay; format: functional, cell-based; settings: TMD8, 72 h
[7] = Terminal elimination half life in Sprague-Dawley rat at 10 mg/kg, iv measured upto 24 hrs by LC/MS/MS analysis; format: ADME, organism-based; settings: in vivo, read-out: beta t1/2 (converted)
[8] = Clearance in Sprague-Dawley rat at 10 mg/kg, iv measured upto 24 hrs by LC/MS/MS analysis; format: ADME, organism-based; settings: in vivo
[9] = Cmax in Sprague-Dawley rat at 10 mg/kg, iv measured upto 24 hrs by LC/MS/MS analysis; format: ADME, organism-based; settings: in vivo
[10] = Cmax in Sprague-Dawley rat at 10 mg/kg, po measured upto 24 hrs by LC/MS/MS analysis; format: ADME, organism-based; settings: in vivo
HeLa = test: Antiproliferative activity against human HeLa cells assessed as inhibition of cell viability measured after 72 hrs by MTT assay; format: functional, cell-based
[11] = Antitumor activity against human TMD8 cells harbouring […] xenografted in mouse model assessed as tumor inhibition rate at 10 mg/kg, iv administered three times a week in presence of chidamide relative to control; format: functional; set-up: scale not given: the % may be the effect or the level left
[12] = target: T1, DNA (cytosine-5)-methyltransferase 3A; test: Inhibition of DNMT3A (unknown origin) preincubated for 15 mins followed by substrate and [3H-SAM] addition and measured after 60 mins by microbeta analysis
TMD8 [13] = test: Induction of apoptosis in human TMD8 cells assessed as early apoptotic cells at 1 uM measured after 48 hrs by annexin-V/FITC and PI staining based flow cytometry analysis (reference value: 9.15%); format: functional
[14] = Subacute toxicity in Balb/C mouse assessed as effect on red blood cells at 30 mg/kg, iv administered three times in a week for 2 weeks; format: organism-based; settings: in vivo, 336 h
[15] = Subacute toxicity in Balb/C mouse assessed as effect on lung at 30 mg/kg, iv administered three times in a week for 2 weeks; format: organism-based; settings: in vivo, 336 h
DOHH-2 [16] = test: Induction of cell cycle arrest in human DOHH-2 cells assessed as accumulation of cells at S phase at 0.5 uM incubated for 24 hrs by PI staining based flow cytometry analysis (reference value: 40.7%); format: functional
[17] = target: T2, DNA (cytosine-5)-methyltransferase 1 (Homo sapiens, UniProt P26358); test: Inhibition of DNMT1 in human DOHH-2 cells assessed as inhibition of DNA methylation incubated for 48 hrs by Western blot analysis; format: cell-based; settings: dose 10-1000 nM
T2 sequence (P26358 whole entry): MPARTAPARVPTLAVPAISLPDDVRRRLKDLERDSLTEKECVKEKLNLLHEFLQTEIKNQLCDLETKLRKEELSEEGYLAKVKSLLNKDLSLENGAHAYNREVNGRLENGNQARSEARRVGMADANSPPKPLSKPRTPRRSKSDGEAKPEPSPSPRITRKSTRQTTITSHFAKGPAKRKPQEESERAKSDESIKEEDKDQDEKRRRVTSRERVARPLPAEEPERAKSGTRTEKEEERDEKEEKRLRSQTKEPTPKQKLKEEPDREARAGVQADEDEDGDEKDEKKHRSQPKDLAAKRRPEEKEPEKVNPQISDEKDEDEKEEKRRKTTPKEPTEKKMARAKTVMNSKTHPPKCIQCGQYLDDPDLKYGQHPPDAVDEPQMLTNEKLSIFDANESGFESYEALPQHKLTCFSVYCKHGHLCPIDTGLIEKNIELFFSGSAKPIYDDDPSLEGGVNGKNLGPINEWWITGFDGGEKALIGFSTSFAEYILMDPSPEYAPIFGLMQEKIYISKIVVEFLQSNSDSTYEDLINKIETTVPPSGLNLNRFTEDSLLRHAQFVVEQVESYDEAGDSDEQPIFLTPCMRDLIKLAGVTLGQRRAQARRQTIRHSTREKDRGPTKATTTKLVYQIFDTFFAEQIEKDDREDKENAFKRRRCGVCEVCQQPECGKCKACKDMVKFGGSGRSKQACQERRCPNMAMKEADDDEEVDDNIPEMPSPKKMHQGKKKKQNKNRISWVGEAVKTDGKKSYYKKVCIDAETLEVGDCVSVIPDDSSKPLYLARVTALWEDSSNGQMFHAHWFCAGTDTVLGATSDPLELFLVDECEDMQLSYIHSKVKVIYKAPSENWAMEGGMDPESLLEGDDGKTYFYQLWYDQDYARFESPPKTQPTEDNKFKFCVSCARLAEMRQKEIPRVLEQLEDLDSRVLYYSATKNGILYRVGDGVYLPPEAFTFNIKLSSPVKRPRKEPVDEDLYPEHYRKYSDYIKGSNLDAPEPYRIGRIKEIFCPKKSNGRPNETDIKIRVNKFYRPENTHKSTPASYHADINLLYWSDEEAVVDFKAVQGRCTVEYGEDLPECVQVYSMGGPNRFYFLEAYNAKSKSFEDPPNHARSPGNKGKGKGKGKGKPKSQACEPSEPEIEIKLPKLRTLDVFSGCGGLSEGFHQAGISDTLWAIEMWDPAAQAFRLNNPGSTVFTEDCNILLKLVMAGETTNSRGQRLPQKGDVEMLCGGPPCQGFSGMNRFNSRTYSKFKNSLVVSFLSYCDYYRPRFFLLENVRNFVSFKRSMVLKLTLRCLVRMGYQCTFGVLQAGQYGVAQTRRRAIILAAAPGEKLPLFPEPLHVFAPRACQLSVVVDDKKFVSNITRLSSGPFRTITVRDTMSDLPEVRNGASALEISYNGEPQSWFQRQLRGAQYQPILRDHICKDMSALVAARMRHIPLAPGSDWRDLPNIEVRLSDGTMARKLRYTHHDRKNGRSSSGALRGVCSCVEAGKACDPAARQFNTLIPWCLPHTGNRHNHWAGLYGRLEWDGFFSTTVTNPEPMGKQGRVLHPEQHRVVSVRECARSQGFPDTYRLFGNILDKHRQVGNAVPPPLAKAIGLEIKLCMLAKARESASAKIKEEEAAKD

RPMI-8226 = test: Antiproliferative activity against human RPMI-8226 cells assessed as inhibition of cell viability measured after 72 hrs by MTT assay; format: functional, cell-based; settings: RPMI-8226, 72 h
TMD8 [18] = test: Induction of cell cycle arrest in human TMD8 cells assessed as accumulation of cells at G0-G1 phase at 0.25 uM incubated for 24 hrs by PI staining based flow cytometry analysis (reference value: 40.7%); format: functional
[19] = Antitumor activity against human TMD8 cells harbouring TP53 mutant xenografted in mouse model assessed as tumor inhibition rate at 10 mg/kg, iv administered three times a week relative to control; format: functional; set-up: scale not given: the % may be the effect or the level left
DOHH-2 [20] = test: Induction of apoptosis in human DOHH-2 cells assessed as early apoptotic cells at 5 uM measured after 48 hrs by annexin-V/FITC and PI staining based flow cytometry analysis (reference value: 5.69%); format: functional
DOHH-2 [21] = test: Induction of cell cycle arrest in human DOHH-2 cells assessed as accumulation of cells at G2-M phase at 0.5 uM incubated for 24 hrs by PI staining based flow cytometry analysis (reference value: 27.8%); format: functional
TMD8 [22] = test: Induction of cell cycle arrest in human TMD8 cells assessed as accumulation of cells at S phase at 0.25 uM incubated for 24 hrs by PI staining based flow cytometry analysis (reference value: 39.0%); format: functional
TMD8 [23] = test: Induction of cell cycle arrest in human TMD8 cells assessed as accumulation of cells at S phase at 0.5 uM incubated for 24 hrs by PI staining based flow cytometry analysis (reference value: 39.0%); format: functional
DOHH-2 [24] = test: Induction of cell cycle arrest in human DOHH-2 cells assessed as accumulation of cells at G0-G1 phase incubated for 24 hrs by PI staining based flow cytometry analysis; format: functional; settings: dose 0.25-1 µM
DOHH-2 [25] = test: Induction of cell cycle arrest in human DOHH-2 cells assessed as accumulation of cells at G2-M phase at 0.25 uM incubated for 24 hrs by PI staining based flow cytometry analysis (reference value: 27.8%); format: functional
TMD8 [26] = test: Induction of apoptosis in human TMD8 cells assessed as late apoptotic cells measured after 48 hrs by annexin-V/FITC and PI staining based flow cytometry analysis; format: functional, cell-based; settings: dose 1-10 µM
[27] = target: T2, DNA (cytosine-5)-methyltransferase 1; test: Inhibition of DNMT1 (unknown origin) at 5 uM preincubated for 15 mins followed by substrate and [3H-SAM] addition and measured after 60 mins by microbeta analysis relative to control; settings: time 75.0 min
[28] = Downregulation of FAS methylation level in human DOHH-2 cells at 100 nM measured after 6 days by PCR analysis relative to control; format: functional; settings: time 6 day
TMD8 [29] = test: Induction of apoptosis in human TMD8 cells assessed as late apoptotic cells at 1 uM measured after 48 hrs by annexin-V/FITC and PI staining based flow cytometry analysis (reference value: 5.13%); format: functional
[30] = Apparent clearance during terminal phase in Sprague-Dawley rat at 10 mg/kg, po measured upto 24 hrs by LC/MS/MS analysis; format: ADME, organism-based; settings: in vivo, read-out: CLz/F (converted)
[31] = Downregulation of BAX methylation level in human DOHH-2 cells at 100 nM measured after 6 days by PCR analysis relative to control; format: functional; settings: time 6 day
TMD8 [32] = test: Induction of apoptosis in human TMD8 cells assessed as early apoptotic cells at 5 uM measured after 48 hrs by annexin-V/FITC and PI staining based flow cytometry analysis (reference value: 9.15%); format: functional
DOHH-2 [33] = test: Antiproliferative activity against human DOHH-2 cells assessed as inhibition of cell viability measured after 72 hrs by MTT assay; format: functional, cell-based; settings: DOHH-2, 72 h

Q: What does the source list for `CN1CCC(Nc2nc(-c3ccnc(F)c3)nc3c2ccn3CCCN2CCCC2)CC1`?
A: Activity (TMD8 [1]): 29.3%; Activity (TMD8 [2]): Active; Activity (DOHH-2 [3]): 19.9%; Activity (DOHH-2 [4]): 33.7%; inhibition [5]: 11%; IC50 (TMD8 [6]): 500 nM; half-life [7]: 10.8 h; clearance [8]: 123 mL/min/kg; Cmax [9]: 419 ng/mL; Cmax [10]: 16.7 ng/mL; IC50 (HeLa): 3020 nM; Activity [11]: 78.1%; IC50 [12]: 14400 nM; Activity (TMD8 [13]): 15.7%; Activity [14]: Non-toxic; Activity [15]: Non-toxic; Activity (DOHH-2 [16]): 26.6%; inhibition [17]: Active; IC50 (RPMI-8226): 780 nM; Activity (TMD8 [18]): 37.9%; Activity [19]: 58%; Activity (DOHH-2 [20]): 44.7%; Activity (DOHH-2 [21]): 29.1%; Activity (TMD8 [22]): 37.8%; Activity (TMD8 [23]): 32.3%; Activity (DOHH-2 [24]): Dose-dependent-effect; Activity (DOHH-2 [25]): 29.9%; Activity (TMD8 [26]): Dose-dependent-effect; inhibition [27]: 75%; Activity [28]: 54.2%; Activity (TMD8 [29]): 6.88%; CL/F [30]: 322 mL/min/kg; Activity [31]: 55.2%; Activity (TMD8 [32]): 41.3%; IC50 (DOHH-2 [33]): 190 nM
